From US20220267288A1, “CARDIAC THERAPEUTIC” (priority 2019, published 2022)

Experiments:
[1] = In vivo pharmacokinetic studies in dogs; settings: for acute toxicity and fatality in vivo: PK study
Method: All experiments were approved by the Animal Research Committee for Animal Experimentation of Toho University (No. 12-52-151) and performed in accordance with the Guidelines for the Care and Use of Laboratory Animals of Toho University. […] Plasma samples were stored at −80° C. and thawed in ice before use.
Ice cold NDEA internal standard (IS) solution was used for protein precipitation at a plasma:IS ratio of 1:3. The mixture was vortex-mixed for 1 min, followed by centrifugation at 14,000 g at 4° C. for 15 min. The supernatant was then transferred into a vial for LC/MS/MS analysis.
The LC/MS/MS system consisted of Infinity ultra-high-pressure liquid chromatography (UHPLC) system (Agilent Technologies Inc., Santa Clara, Calif.) with the AB SCIEX QTRAP® 5500 tandem mass spectrometry (MS/MS) system (AB SCIEX, Framingham, Mass.). MultiQuant software version 1.4.0.18067 (Applied Biosystems) was used to perform all chromatographic peak integration.
Chromatographic separation was performed using ACQUITY UPLC BEH C18 column, 1.7 μm, 2.1×50 mm (Waters, Milford, Mass.), with a gradient elution programme. The mobile phases were 0.2% acetic acid in 5 mM ammonium acetate in water (A) and 0.2% acetic acid in ACN (B). The elution conditions were linear gradient 30-95% B (0-1.60 min), isocratic at 95% B (1.61-1.99 min), and isocratic at 30% B (2.00-2.50 min). Multiple reaction monitoring (MRM) transitions were optimized for NDEA (internal standard, IS), dronedarone and poyendarone.
Individual pharmacokinetic parameters were estimated using NCA for IV bolus data (Model 201), using WinNonlin® (Pharsight, USA). […] Data points included in the calculation of Lambda Z (Az) were first determined by WinNonlin®, and then visually assessed and modified accordingly. Other parameters calculated include apparent total plasma clearance (CL), apparent volume of distribution based on terminal phase (Vz), apparent elimination half-life (T1/2), apparent volume at steady state (Vss), mean residence time (MRT) and MRT extrapolated to infinity (MRTinf). […]

H9c2 cells = assay: Reduction of intracellular ATP (Mitochondrial ToxGlo) in differentiated H9c2 cells; assay type: cell-based; settings: Rattus norvegicus; H9c2 cells, 6 h exposure; read-out: decrease in intracellular ATP levels IC50
Method: H9c2 cell line was purchased from American Tissue Type Collection (ATCC) (Manassas, Va.). The cells were cultured in low-glucose DMEM growth media (Cat No: 31600, Thermo Fisher Scientific, Waltham, Mass.) supplemented with 1.5 g/L sodium bicarbonate, 25 mM HEPES, 10% fetal bovine serum (FBS) (GE Healthcare, Singapore), 100 units/mL penicillin, 100 μg/mL streptomycin and 250 ng/mL amphotericin B in 75-cm^2 tissue-culture flasks at 37° C. in a humidified atmosphere of 5% CO2. Cells were fed every 2-3 days and sub-cultured once 70-80% confluency was achieved to prevent the loss of differentiation potential. For differentiation, H9c2 cells were seeded at a density of 100,000 cells/well in 12-well plates. The cells were maintained for 1 day in low-glucose high-serum growth media to allow for cell attachment. Subsequently, cells were differentiated using 1 μM ATRA.
H9c2 cells were seeded in a white chimney plate and differentiated. The media was changed to DMEM with 10 mM galactose, 2 mM glutamine (6 mM final), 5 mM HEPES, 1 mM sodium pyruvate, 100 U/mL penicillin, 100 μg/mL streptomycin, 0.25 μg/mL amphotericin B, 1% FBS, 1× insulin-transferrin-selenium and 1 μM ATRA for 48 h to overcome the Crabtree effect. […] The cytotoxicity and intracellular ATP content were measured concurrently using Mitochondrial ToxGlo™ kit (Promega, Madison, Wis.) using manufacturer's protocol. Mitochondrial ToxGlo™ assay measures the cell viability using fluorogenic peptide bis-alanine-alanine-phenylalanine-R110 (bis-AAF-R110). Bis-AAF-R110 is a selective peptide that measures protease activity in dead cells since it is impermeable to live cells. Here, the fluorescence derived from metabolized bis-AAF-R110 was measured at different concentrations of the test compounds and compared to control. As the concentration of cytotoxic compound increases, the number of dead cells increases, leading to a higher fluorescence signal. ATP is measured by adding the ATP Detection Reagent, resulting in cell lysis and generation of a luminescent signal proportional to the amount of ATP present. […]

Row | Structure (SMILES) | acute toxicity and fatality in vivo [1] | IC50 (H9c2 cells) | plasma disposition profile, clearance and volume of distribution compared between poyendarone and dronedarone ([1]; 3.0 mg/kg IV bolus, 3 mg/kg)
1 | CCCCc1oc2ccc(NS(C)(=O)=O)cc2c1C(=O)c1ccc(OCCCN(CCCC)CCCC)cc1.Cl [Dronedarone] | No acute toxicity nor fatality | 3.1 µM | 
2 | Cl.[2H]c1c(NS(C)(=O)=O)c([2H])c2c(C(=O)c3ccc(OCCCN(CCCC)CCCC)cc3)c(CCCC)oc2c1[2H] [Poyendarone, Methanesulfonamide, N-(2-butyl-3-(4-(3-(dibutylamino)propoxy)benzoyl)-1-benzo(4,6,7-d3)-furan-5-yl)hydrochloride] | No acute toxicity nor fatality | 41.5 µM | comparable
